Measured values from patent publication US20240400584A1, “COMPOUNDS AND METHODS FOR MODULATING SPLICING” (REMIX THERAPEUTICS INC., priority 2021, published 2024).

Assays:
MYB [1] = test: Gene panel canonical junction qPCR assay, MYB CJ mRNA (Table 7); type: cell-based; settings: Homo sapiens, read-out: MYB CJ mRNA decrease IC50
Method: (§1) Compounds described herein were used to modulate RNA transcript abundance in cells. The expression of a target mRNA was measured by detecting the formation of an exon-exon junction in the canonical transcript (CJ). A compound mediated exon-inclusion event was detected by observing an increase in formation OF A new junction with an alternative exon (AJ). Real-time qPCR assays were used to detect these splicing switches and interrogate the potency of various compounds towards different target Genes. A high-throughput real time quantitative PCR (RT-qPCR) assay was developed to measure these two isoforms of the mRNA (CJ and AJ) for exemplary genes, such as HTT, SMN2, and MYB, together with a control housekeeping gene, GAPDH or GUSB or PPIA, used for normalization. Briefly, the A673 or K562 cell line was treated with various compounds described herein (e.g., compounds of Formula (i)). After treatment, the levels of the HTT, MYB, or SMN2 mRNA targets were determined from each sample of cell lysate by cDNA synthesis followed by qPCR.
(§2) The data analysis was performed by first determining the ΔCt vs the housekeeper gene. This ΔCt was then normalized against the DMSO control (ΔΔCt) and converted to RQ (relative quantification) using the 2^(−ΔΔCt) equation. The RQ were then converted to a percentage response by arbitrarily setting an assay window of 3.5 and 4.0 ΔCt for HTT-CJ and MYB-CJ respectively and an assay window of 9 and 3 ΔCt for HTT-AJ and MYB-AJ in 96 well format (50,000 K562 cells/well and 15,000 A673 cells per well) and an assay window of 3 and 4 ΔCt for HTT-CJ and MYB-CJ respectively and an assay window of 5 and 3 ΔCt for HTT-AJ and MYB-AJ respectively in 384 well format (8,000 K562 cells/well example). […] The percentage response was then fitted to the 4 parametric logistic equation to evaluate the concentration dependence of compound treatment. The increase in AJ mRNA is reported as AC50 (compound concentration having 50% response in AJ increase) while the decrease in CJ mRNA levels is reported as IC50 (compound concentration having 50% response in CJ decrease).
(§3) Additional studies were carried out for a larger panel of genes using the protocol provided above. The junction between flanking upstream and downstream exons was used to design canonical junction qPCR assays. At least one of the forward primer, reverse primer or the CY5-labeled 5′ nuclease probe (with 3′ quencher such as ZEN/Iowa Black FQ) was designed to overlap with the exon junction to capture the CJ mRNA transcript. BLAST was used to confirm the specificity of the probeset and parameters such as melting temperature, GC content, amplicon size, and primer dimer formation are considered during their design. Data for the decrease in CJ mRNA levels for four exemplary genes (HTT, SMN2, MYB, and Target C) analyzed in this panel are reported as IC50 (compound concentration having 50% response in CJ decrease).

HTT [2] = test: Gene panel canonical junction qPCR assay, HTT CJ mRNA (Table 7); type: cell-based, human; settings: read-out: HTT CJ mRNA decrease IC50
Method: as §1, §2, §3

SMN2 = test: Gene panel canonical junction qPCR assay, SMN2 CJ mRNA (Table 7); type: cell-based; settings: Homo sapiens, read-out: SMN2 CJ mRNA decrease IC50
Method: as §1, §2, §3

HTT [3] = test: RT-qPCR splicing assay, HTT AJ/CJ mRNA; type: cell-based, human; settings: A673 or K562 cells; for IC50: decrease in canonical junction mRNA; for AC50: increase in alternative junction mRNA
Method: as §1
(§4) The A673 cell line was cultured in DMEM with 10% FBS. Cells were diluted with full growth media and plated in a 96-well plate (15,000 cells in 100 ul media per well). The plate was incubated at 37° C. with 5% CO2 for 24 hours to allow cells to adhere. An 11-point 3-fold serial dilution of the compounds was made in DMSO then diluted in media in an intermediate plate. Compounds were transferred from the intermediate plate to the cell plate with the top dose at a final concentration of 10 uM in the well. Final DMSO concentration was kept at or below 0.25%. The cell plate was returned to the incubator at 37° C. with 5% CO2 for an additional 24 hours.
(§5) The K562 cell line was cultured in IMDM with 10% FBS. For K562, cells were diluted with full growth media and plated in either a 96-well plate (50,000 cells in 50 uL media per well) or a 384-well plate (8,000-40,000 cells in 45 uL media per well). An 11-point 3-fold serial dilution of the compounds were made in DMSO then diluted in media in an intermediate plate. Compound was transferred from the intermediate plate to the cell plate with the top dose at a final concentration of 10 uM in the well. Final DMSO concentration was kept at or below 0.25%. Final volume was 100 uL for 96-well plate and 50 uL for 384-well plate. The cell plate was then placed in an incubator at 37° C. with 5% CO2 for 24 hours.
(§6) The cells were then gently washed with 50 uL-100 uL Cold Pbs before proceeding to addition of lysis buffer. 30 uL-50 μL of room temperature lysis buffer with DNAse I (and optionally RNAsin) was added to each well. Cells were shaken/mixed thoroughly at room temperature for 5-10 minutes for lysis to take place and then 3 uL-5 μL of room temperature stop solution was added and wells were shaken/mixed again. After 2-5 minutes, the cell lysate plate was transferred to ice for RT-qPCR reaction setup. The lysates could also be frozen at −80° C. for later use.
(§7) In some cases, a direct lysis buffer was used. an appropriate volume of 3× lysis buffer (10 mM tRis, 150 mM NaCl, 1.5%-2.5% Igepal and 0.1-1 U/uL RNAsin, pH 7.4) was directly added to either K562 or A673 cells in media and mixed by pipetting 3 times. The plates were then incubated at room temperature with shaking/rocking for 20-50 minutes to allow for lysis to take place. After this time, the cell lysate plate was transferred to ice to set up for the RT-qPCR reactions. The lysates could also be frozen at −80° C. for later use.
(§8) To set up 10 uL RT-QpcR reactions, cell lysates were transferred to 384-well qPCR plates containing the master mix according to the table below. The plates were sealed, gently vortexed, and spun down before the run. The volumes were adjusted accordingly in some instances where the reaction was carried in 20 µL. The table below summarizes the components of the RT-qPCR reactions:
(§9) The RT-qPCR reaction was performed using a QuantStudio (ThermoFisher) under the following fast cycling conditions. […]

Target C = test: Gene panel canonical junction qPCR assay, Target C CJ mRNA (Table 7); type: cell-based, human; settings: Homo sapiens, read-out: Target C CJ mRNA decrease IC50
Method: as §1, §2, §3

MYB [4] = test: RT-qPCR splicing assay, MYB AJ/CJ mRNA; type: cell-based; settings: Homo sapiens, A673 or K562 cells, 24 hours; for IC50: decrease in canonical junction mRNA; for AC50: increase in alternative junction mRNA
Method: as §1, §4, §5, §6, §7, §8, §9

SMILES: Cc1cc(-c2ccc3c(c2)COc2nc(N4CC[C@H](NC(C)(C)C)C4)ccc2-3)cnn1 (single isomer, unassigned) [Compound 273, N-tert-butyl-1-[8-(6-methylpyridazin-4-yl)-6H-isochromeno[3,4-b]379yrrolid-3-yl]379yrrolidine-3-amine]
- IC50 (MYB [1]): > 10 µM
- IC50 (HTT [2]; Homo sapiens): > 10 µM
- IC50 (SMN2): > 10 µM
- IC50 (HTT [3]; Homo sapiens, 24 h): > 10 µM
- AC50 (HTT [3]; Homo sapiens, 24 h): > 10 µM
- IC50 (Target C): > 10 µM
- IC50 (MYB [4]): > 10 µM
- AC50 (MYB [4]): > 10 µM

SMILES: CN(c1ccc2c(n1)COc1cc(-n3cccn3)ccc1-2)[C@@H]1C[C@H]2CC[C@@H](C1)N2 [Compound 109]
- IC50 (HTT [3]; 24 hours): 0.1 to 1 µM
- AC50 (HTT [3]; 24 hours): 0.1 to 1 µM

SMILES: CN(c1ccc2c(c1)CCOc1cc(-c3cn[nH]c3)ccc1-2)[C@@H]1C[C@H]2CC[C@@H](C1)N2 [Compound 112]
- IC50 (Target C): > 10 µM

SMILES: CN(c1ccc2c(n1)CCOc1cc(-c3cn[nH]c3)ccc1-2)C1CC(C)(C)NC(C)(C)C1 [Compound 114]
- IC50 (HTT [2]; Homo sapiens): 0.1 to 1 µM
- IC50 (HTT [3]; Homo sapiens, 24 h): 0.1 to 1 µM
- AC50 (HTT [3]; Homo sapiens, 24 h): < 0.1 µM
- IC50 (Target C): < 0.1 µM

SMILES: CN(c1ccc2c(n1)CCOc1cc(-c3cn[nH]c3)ccc1-2)[C@@H]1C[C@H]2CC[C@@H](C1)N2 [Compound 127]
- IC50 (MYB [1]): > 10 µM
- IC50 (HTT [2]; Homo sapiens): > 10 µM
- IC50 (SMN2): > 10 µM
- IC50 (HTT [3]; Homo sapiens, 24 h): > 10 µM
- AC50 (HTT [3]; Homo sapiens, 24 h): > 10 µM
- IC50 (MYB [4]): > 10 µM
- AC50 (MYB [4]): > 10 µM

SMILES: CN(c1ccc2c(n1)CCOc1cc(-n3cccn3)ccc1-2)[C@@H]1C[C@H]2CC[C@@H](C1)N2 [Compound 128]
- IC50 (HTT [2]; Homo sapiens): > 10 µM
- IC50 (HTT [3]; Homo sapiens, 24 h): > 10 µM
- AC50 (HTT [3]; Homo sapiens, 24 h): > 10 µM
- IC50 (Target C): > 10 µM

SMILES: c1cc2c(cc1N[C@@H]1C[C@H]3CC[C@@H](C1)N3)CCOc1cc(-c3cn[nH]c3)ccc1-2 [Compound 132]
- IC50 (HTT [2]; Homo sapiens): > 10 µM
- IC50 (HTT [3]; Homo sapiens, 24 h): > 10 µM
- AC50 (HTT [3]; Homo sapiens, 24 h): > 10 µM
- IC50 (Target C): > 10 µM

SMILES: CN(c1cnc2c(n1)OCc1cc(-c3cn[nH]c3)ccc1-2)C1CC(C)(C)NC(C)(C)C1 [Compound 138]
- IC50 (HTT [2]): 1 to 10 µM
- IC50 (HTT [3]; 24 hours): 1 to 10 µM
- AC50 (HTT [3]; 24 hours): 1 to 10 µM
- IC50 (Target C): 1 to 10 µM

SMILES: c1cc2c(cc1-c1cn[nH]c1)OCCc1nc(N[C@@H]3C[C@H]4CC[C@@H](C3)N4)ccc1-2 [Compound 140]
- IC50 (MYB [1]): > 10 µM
- IC50 (HTT [2]; Homo sapiens): > 10 µM
- IC50 (SMN2): > 10 µM
- IC50 (HTT [3]; Homo sapiens, 24 h): > 10 µM
- AC50 (HTT [3]; Homo sapiens, 24 h): > 10 µM
- IC50 (MYB [4]): > 10 µM
- AC50 (MYB [4]): > 10 µM

SMILES: CN(c1ccc2c(n1)OCc1cc(-n3cccn3)ccc1-2)[C@H]1[C@@H]2CNC[C@@H]21 [Compound 194]
- IC50 (HTT [2]; Homo sapiens): > 10 µM
- IC50 (SMN2): > 10 µM
- IC50 (HTT [3]; Homo sapiens, 24 h): 1 to 10 µM
- AC50 (HTT [3]; Homo sapiens, 24 h): 1 to 10 µM
- IC50 (Target C): > 10 µM

SMILES: CCN(c1ccc2c(n1)OCc1cc(-n3cccn3)ccc1-2)[C@@H]1C[C@H]2CCC[C@@H](C1)N2 [Compound 195]
- IC50 (MYB [1]): 1 to 10 µM
- IC50 (HTT [2]; Homo sapiens): 0.1 to 1 µM
- IC50 (SMN2): 0.1 to 1 µM
- IC50 (Target C): 1 to 10 µM
- IC50 (MYB [4]): 1 to 10 µM
- AC50 (MYB [4]): > 10 µM

SMILES: c1cnn(-c2ccc3c(c2)COc2nc(N(C4CC4)[C@@H]4C[C@H]5CCC[C@@H](C4)N5)ccc2-3)c1 [Compound 203]
- IC50 (HTT [3]; Homo sapiens, 24 h): 1 to 10 µM
- AC50 (HTT [3]; Homo sapiens, 24 h): 1 to 10 µM

SMILES: c1cnn(-c2ccc3c(c2)COc2nc(N(C4CC4)[C@@H]4C[C@H]5CC[C@@H](C4)N5)ccc2-3)c1 [Compound 205]
- IC50 (HTT [3]; Homo sapiens, 24 h): 1 to 10 µM
- AC50 (HTT [3]; Homo sapiens, 24 h): 0.1 to 1 µM

SMILES: Cc1cc(-c2ccc3c(c2)COc2nc(O[C@@H]4C[C@H]5C[C@@H](C4)N5)ccc2-3)ccn1 [Compound 209]
- IC50 (MYB [1]): 0.1 to 1 µM
- IC50 (HTT [2]; Homo sapiens): 0.1 to 1 µM
- IC50 (SMN2): 0.1 to 1 µM
- IC50 (Target C): 1 to 10 µM
- IC50 (MYB [4]): 0.1 to 1 µM
- AC50 (MYB [4]): 1 to 10 µM

SMILES: c1cc2c(cc1-c1cn[nH]c1)COc1nc(N3CCC34CCCNC4)ccc1-2 (stereo not drawn) [Compound 210]
- IC50 (HTT [3]; Homo sapiens, 24 h): > 10 µM
- IC50 (MYB [4]): > 10 µM

SMILES: c1cc2c(cc1-c1cn[nH]c1)COc1nc(N3CCC(NC4CC4)C3)ccc1-2 (stereo not drawn) [Compound 211]
- IC50 (HTT [3]; Homo sapiens, 24 h): < 0.1 µM
- IC50 (MYB [4]): 0.1 to 1 µM

SMILES: CC(C)(C)NC1CCN(c2ccc3c(n2)OCc2cc(-c4cn[nH]c4)ccc2-3)C1 (stereo not drawn) [Compound 212]
- IC50 (HTT [3]; Homo sapiens, 24 h): < 0.1 µM
- IC50 (MYB [4]): 0.1 to 1 µM

SMILES: CC(C)(C)NC1CCN(c2ccc3c(n2)OCc2cc(-n4cccn4)ccc2-3)C1 (stereo not drawn) [Compound 213]
- IC50 (HTT [3]; Homo sapiens, 24 h): 0.1 to 1 µM
- IC50 (MYB [4]): 1 to 10 µM

SMILES: c1cnn(-c2ccc3c(c2)COc2nc(N4CCC(NC5CC5)C4)ccc2-3)c1 (stereo not drawn) [Compound 214]
- IC50 (HTT [3]; Homo sapiens, 24 h): > 10 µM
- IC50 (MYB [4]): > 10 µM
